In paper PMC10141580, “Cyclic Dichalcogenides Extend the Reach of Bioreductive Prodrugs to Harness Thiol/Disulfide Oxidoreductases: Applications to seco-Duocarmycins Targeting the Thioredoxin System” (ACS Central Science, 2023):
Several values for one entry are separate records, joined by “and”; a condition that tells them apart may be missing. Equal values may be shown once. Read-outs that look alike come from different tables or passages of the source.

Test system: panel of 140 standard cancer cell lines
Assay: ProliFiler-140 cancer cell line screen (CellTiterGlo, 72 h)
Format: cell-based
Description: Incubations were performed for 72 h before automated viability readout with CellTiterGlo (Figure 8).
End of Figure S11 (part 5 of 5): ProliFiler-140 cancer cell line screening for cytotoxicity of the prodrugs.
8-data-point dose response curves from CellTiter-Glo® viability readout.
ProliFiler-140 cell line panel part V

COc1cc2cc(C(=O)N3C[C@@H](CCl)c4c3cc(OC(=O)N(CCC(=O)N3CCN(C)CC3)C3CCCCC3)c3ccccc43)[nH]c2c(OC)c1OC [P-CC60-CBI-TMI]
IC50 (MEC-1 (Blood), read-out: IC50 [M] (ProliFiler-140)): 8.9e-08 M and 8.89e-08 M
IC50 (MKN-1 (Stomach), read-out: IC50 [M] (ProliFiler-140)): 1.5e-06 M and 1.53e-06 M
IC50 (MKN-45 (Stomach), read-out: IC50 [M] (ProliFiler-140)): 4.87e-07 M and 4.9e-07 M
IC50 (MOLM-13 (Blood), read-out: IC50 [M] (ProliFiler-140)): 6.1e-08 M and 6.05e-08 M
IC50 (MOLT-4 (Blood), read-out: IC50 [M] (ProliFiler-140)): 7.6e-08 M and 7.57e-08 M
IC50 (MV4-11 (Blood), read-out: IC50 [M] (ProliFiler-140)): 1.2e-08 M and 1.18e-08 M
IC50 (Mia PaCA 2 (Pancreas), read-out: IC50 [M] (ProliFiler-140)): 3.75e-07 M and 3.8e-07 M
IC50 (NALM-6 (Blood), read-out: IC50 [M] (ProliFiler-140)): 5.58e-08 M and 5.6e-08 M
IC50 (NCI-H82 (Lung), read-out: IC50 [M] (ProliFiler-140)): 7.5e-07 M
IC50 (NCI-H292 (Lung), read-out: IC50 [M] (ProliFiler-140)): 2.6e-07 M and 2.59e-07 M
IC50 (NCI-H441 (Lung), read-out: IC50 [M] (ProliFiler-140)): 2.94e-07 M and 2.9e-07 M
IC50 (NCI-H838 (Lung), read-out: IC50 [M] (ProliFiler-140)): 7.5e-07 M and 7.54e-07 M
IC50 (NCI-H1048 (Lung), read-out: IC50 [M] (ProliFiler-140)): 5.9e-08 M and 5.92e-08 M
IC50 (NCI-H1437 (Lung), read-out: IC50 [M] (ProliFiler-140)): 3.01e-07 M and 3e-07 M
IC50 (NCI-H1563 (Lung), read-out: IC50 [M] (ProliFiler-140)): 1.7e-06 M and 1.69e-06 M
IC50 (NCI-H1573 (Lung), read-out: IC50 [M] (ProliFiler-140)): 1.1e-06 M and 1.07e-06 M
IC50 (NCI-H1581 (Lung), read-out: IC50 [M] (ProliFiler-140)): 4.32e-07 M and 4.3e-07 M
IC50 (NCI-H1703 (Lung), read-out: IC50 [M] (ProliFiler-140)): 8.1e-07 M and 8.15e-07 M
IC50 (NCI-H1838 (Lung), read-out: IC50 [M] (ProliFiler-140)): 8.2e-07 M and 8.19e-07 M
IC50 (NCI-H2009 (Lung), read-out: IC50 [M] (ProliFiler-140)): 4.22e-07 M and 4.2e-07 M
IC50 (NCI-H2110 (Lung), read-out: IC50 [M] (ProliFiler-140)): 1.4e-07 M and 1.44e-07 M
IC50 (NCI-H2286 (Lung), read-out: IC50 [M] (ProliFiler-140)): 1.2e-07 M and 1.25e-07 M
IC50 (NCI-N87 (Stomach), read-out: IC50 [M] (ProliFiler-140)): 1.1e-06 M and 1.15e-06 M
IC50 (OCI-AML3 (Blood), read-out: IC50 [M] (ProliFiler-140)): 1.3e-07 M and 1.33e-07 M
IC50 (OCI-AML5 (Blood), read-out: IC50 [M] (ProliFiler-140)): 3.4e-08 M and 3.39e-08 M
IC50 (OCI-LY19 (Blood), read-out: IC50 [M] (ProliFiler-140)): 1.53e-08 M and 1.5e-08 M
IC50 (OPM-2 (Blood), read-out: IC50 [M] (ProliFiler-140)): 6.61e-07 M and 6.6e-07 M
IC50 (OV56 (Ovary), read-out: IC50 [M] (ProliFiler-140)): 2.02e-07 M and 2e-07 M
IC50 (OVCAR-3 (Ovary), read-out: IC50 [M] (ProliFiler-140)): 1e-06 M and 1.02e-06 M
IC50 (OVCAR-3, read-out: IC50): 1e-06 M
IC50 (OVK18 (Ovary), read-out: IC50 [M] (ProliFiler-140)): 2e-07 M
IC50 (P31/FUJ (Blood), read-out: IC50 [M] (ProliFiler-140)): 1.9e-07 M and 1.88e-07 M
IC50 (PANC-1 (Pancreas), read-out: IC50 [M] (ProliFiler-140)): 1.4e-06 M and 1.38e-06 M
IC50 (PC3 (Prostate), read-out: IC50 [M] (ProliFiler-140)): 5.17e-07 M and 5.2e-07 M
IC50 (PC-9 (Lung), read-out: IC50 [M] (ProliFiler-140)): 1.1e-07 M and 1.14e-07 M
IC50 (RERF-LC-Ad2 (Lung), read-out: IC50 [M] (ProliFiler-140)): 7.8e-07 M and 7.84e-07 M
IC50 (RERF-LC-MS (Lung), read-out: IC50 [M] (ProliFiler-140)): 4.59e-07 M and 4.6e-07 M
IC50 (RKO (Colon), read-out: IC50 [M] (ProliFiler-140)): 2.98e-07 M and 3e-07 M
IC50 (RL95-2 (Endometrium), read-out: IC50 [M] (ProliFiler-140)): 7.43e-07 M and 7.4e-07 M
IC50 (RPMI 8226 (Blood), read-out: IC50 [M] (ProliFiler-140)): 3.38e-07 M and 3.4e-07 M
IC50 (RPMI 8226, read-out: IC50): 3.4e-07 M
IC50 (SCH (Stomach), read-out: IC50 [M] (ProliFiler-140)): 3.9e-07 M and 3.87e-07 M
IC50 (SCLC-21H (Lung), read-out: IC50 [M] (ProliFiler-140)): 1.58e-07 M and 1.6e-07 M
IC50 (SJSA-1 (Bone), read-out: IC50 [M] (ProliFiler-140)): 3.78e-07 M and 3.8e-07 M
IC50 (SK-BR-3 (Breast), read-out: IC50 [M] (ProliFiler-140)): 3.7e-07 M
IC50 (SK-ES-1 (Bone), read-out: IC50 [M] (ProliFiler-140)): 3.35e-08 M and 3.4e-08 M
IC50 (SK-LU-1 (Lung), read-out: IC50 [M] (ProliFiler-140)): 1.6e-07 M and 1.62e-07 M
IC50 (SK-MEL-3 (Skin), read-out: IC50 [M] (ProliFiler-140)): 1e-06 M and 1.03e-06 M
IC50 (SK-N-FI (Brain), read-out: IC50 [M] (ProliFiler-140)): 6.81e-07 M and 6.8e-07 M
IC50 (SK-N-MC (Brain), read-out: IC50 [M] (ProliFiler-140)): 1.3e-08 M and 1.33e-08 M
IC50 (SK-N-SH (Brain), read-out: IC50 [M] (ProliFiler-140)): 7.5e-07 M and 7.45e-07 M
IC50 (SK-OV3 (Ovary), read-out: IC50 [M] (ProliFiler-140)): 4.38e-07 M and 4.4e-07 M
IC50 (SK-OV3, read-out: IC50): 4.4e-07 M
IC50 (SNU840 (Ovary), read-out: IC50 [M] (ProliFiler-140)): 6.99e-08 M and 7e-08 M
IC50 (SNU-1 (Stomach), read-out: IC50 [M] (ProliFiler-140)): 2.3e-07 M and 2.27e-07 M
IC50 (SNU-16 (Stomach), read-out: IC50 [M] (ProliFiler-140)): 7.09e-07 M and 7.1e-07 M
IC50 (SNU-216 (Stomach), read-out: IC50 [M] (ProliFiler-140)): 1.84e-06 M and 1.8e-06 M
IC50 (SU-DHL-5 (Blood), read-out: IC50 [M] (ProliFiler-140)): 5e-08 M and 4.98e-08 M
IC50 (SW480 (Colon), read-out: IC50 [M] (ProliFiler-140)): 3.31e-07 M and 3.3e-07 M
IC50 (SW620 (Colon), read-out: IC50 [M] (ProliFiler-140)): 6.99e-07 M and 7e-07 M
IC50 (SW948 (Colon), read-out: IC50 [M] (ProliFiler-140)): 6.79e-07 M and 6.8e-07 M
IC50 (SW-1783 (Brain), read-out: IC50 [M] (ProliFiler-140)): 4.78e-07 M and 4.8e-07 M
IC50 (Saos-2 EC (Bone), read-out: IC50 [M] (ProliFiler-140)): 2.34e-07 M and 2.3e-07 M
IC50 (SiHa (Ovary), read-out: IC50 [M] (ProliFiler-140)): 6.13e-07 M and 6.1e-07 M
IC50 (T84 (Colon), read-out: IC50 [M] (ProliFiler-140)): 9.09e-07 M and 9.1e-07 M
IC50 (T98G (Brain), read-out: IC50 [M] (ProliFiler-140)): 6.6e-07 M
IC50 (T-47D (Breast), read-out: IC50 [M] (ProliFiler-140)): 1e-06 M and 1.04e-06 M
IC50 (T-47D, read-out: IC50): 1e-06 M
IC50 (U2OS (Bone), read-out: IC50 [M] (ProliFiler-140)): 1.31e-07 M and 1.3e-07 M
IC50 (U87MG (Brain), read-out: IC50 [M] (ProliFiler-140)): 1.2e-06 M and 1.22e-06 M
IC50 (U118MG (Brain), read-out: IC50 [M] (ProliFiler-140)): 3.92e-07 M and 3.9e-07 M
IC50 (U251MG (Brain), read-out: IC50 [M] (ProliFiler-140)): 2e-06 M
IC50 (U-266 (Blood), read-out: IC50 [M] (ProliFiler-140)): 1.41e-07 M and 1.4e-07 M
IC50 (U-937 (Blood), read-out: IC50 [M] (ProliFiler-140)): 7.39e-08 M and 7.4e-08 M
IC50 (ZR-75-1 (Breast), read-out: IC50 [M] (ProliFiler-140)): 1.42e-06 M and 1.4e-06 M
IC50 (read-out: IC50 [M] (ProliFiler-140)): 2.36e-07 M and 2.4e-07 M
